Consider seven compounds from PMC7765948, “Spadin Modulates Astrocytic Passive Conductance via Inhibition of TWIK-1/TREK-1 Heterodimeric Channels” (International Journal of Molecular Sciences, 2020).

Each structure is given as a SMILES string. Like-named read-outs stand apart in the source and are kept apart here.

The test system of one assay is TREK-1. As to conditions: cited from earlier work; for reduction of TREK-1 activity: antidepressants. On the procedure: (§1) Because of the typical linear I–V relationship of astrocytic passive conductance, it has been speculated that astrocytic passive conductance is carried by non-voltage-gated K^+ channels.
For assay [1], the system named is astrocytic passive conductance in mouse hippocampal slices. Briefly: Whole-cell patch clamp of astrocytic passive conductance in hippocampal slices. The settings on record: quinidine 200 μM versus spadin 10 μM. The format is cell-based, mouse (C57BL/6). On the procedure:
Lentiviruses were injected into hippocampal CA1 region (AP: 0.17, ML: 0.17, DV: 0.19) of 7–8 week-old wild-type C57BL/6 mice. The virus-infected mouse brain slices (350 μm) containing the hippocampus were […]. Individual hippocampal slices were transferred to a recording chamber, which was constantly perfused with artificial cerebrospinal fluid (ACSF) recording solution containing (in mM) 130 NaCl, 24 NaHCO3, 3.5 KCl, 1.25 NaH2PO4, 1.5 CaCl2, 1.5 MgCl2, and 10 glucose saturated with 95% O2–5% CO2 at pH 7.4. Brain slices were co-loaded with SR-101 (Sigma Aldrich, St. Louis, MO, USA; 1 mM) dye to identify the location of astrocytes in the CA1 region. The slices were recovered at room temperature for at least 1 h before SR101 incubation and electrophysiological recording. […] Whole-cell patch recordings were performed on hippocampal astrocytes with a voltage-clamp configuration using an Axopatch 700B (Axon Instruments, Union City, CA, USA). All data are presented as means ± standard error of the mean (s.e.m). The significance of data for comparison was assessed by Student’s t-test (paired t-test) or one-way ANOVA followed by Turkey’s post hoc test, and significance levels are given as: n.s: not significant, * p < 0.05, ** p < 0.01, *** p < 0.001, and **** p < 0.0001. […]
(In general: Patch clamp records ionic current or voltage across a cell membrane.)

In assay [2] the test system is astrocytic passive conductance. The settings on record: 200 μM quinine; cited from earlier work. On the procedure:
as §1

Another assay concerns TWIK-1 (K274E). The settings on record: 100 μM quinine; cited from earlier work. How it is done: as §1
[3] abbreviates: conventional K^+ channel blockers.

With `Nc1ccncn1` [4-aminopyrimidine], the TREK-1 channel activity result in the assay on TREK-1 (setting [3]) was “not”.

For the compound `CCCCC/C=C\C/C=C\C/C=C\C/C=C\CCCC(=O)O` [AA, arachidonic acid], the TREK-1 channel activation entry with TREK-1 is listed as “activated”.

As to `CNCCC(Oc1ccc(C(F)(F)F)cc1)c1ccccc1` (centres unmarked) [Fluoxetine], the “reduction of TREK-1 activity” value with TREK-1 was “effective in the reduction of TREK-1 activity”.

Turning to `Fc1ccc([C@@H]2CCNC[C@H]2COc2ccc3c(c2)OCO3)cc1` [paroxetine], the “reduction of TREK-1 activity” value with TREK-1 is on record as “effective in the reduction of TREK-1 activity”.

In the case of `C=C[C@H]1C[N@@]2CC[C@H]1C[C@@H]2[C@@H](O)c1ccnc2ccc(OC)cc12` [quinidine], the TREK-1 channel activity entry in the assay on TREK-1 (high-dose quinine or quinidine) is listed as “affected”. In addition, the “concentration required for similar inhibition of passive conductance” value in assay [1] was “required at a much higher concentration than spadin”.

For the compound `C=C[C@H]1C[N@@]2CC[C@H]1C[C@H]2[C@H](O)c1ccnc2ccc(OC)cc12` [quinine], the “cloned TREK-1 current” value in the assay on TREK-1 (100 μM quinine) is listed as “potently decreases”. The TREK-1 channel activity entry with TREK-1 (high-dose quinine or quinidine) is “affected”. The “inhibition of astrocytic passive conductance” value in assay [2] was 58%. Also, the “cloned TWIK-1 (K274E) current” value with TWIK-1 (K274E) is given as “potently decreases”.

`CC[N+](CC)(CC)CC` [tetraethylammonium]: in the assay with TREK-1 (setting [3]), the TREK-1 channel activity result is “not”.
